Laboratory results as given in patent US20230127498A1, “TREATMENT OF RESPIRATORY DISORDERS” (Terns, Inc., priority 2020, published 2023).
Structures can show the parent of a compound that is named as a salt. Where two headings read alike, the source gives them in different places.

Assays:
[1] = mouse, in vivo; cited from earlier work
[2] = Single-ascending dose clinical trial: safety, adverse events; type: in vivo, human
Protocol: (§1) Safety was assessed for 7 (±3) days after dosing.

[3] = human, in vivo
Protocol: as §1
(§2) Plasma PK parameters were determined by non-compartmental analysis.

[4] = in vivo; cited from earlier work
rhinovirus = conditions: mice sensitized with HDM, challenged with HDM and rhinovirus; cited from earlier work
[5] = cited from earlier work
[6] = tested on: Influenza A virus, WSN/33 strain of H1N1; conditions: for Median survival time / Survival proportion / Prolonged survival time*: Formula 5 20 mg/kg QD, oseltamivir 5 mg/kg BID; for Prolonged survival time*: compared with vehicle group
methylamine (MMA) = test: Single-ascending dose clinical trial: plasma methylamine (MMA) levels; type: in vivo, human
Protocol: as §1

SSAO = molecular target: T1, SSAO (Homo sapiens, UniProt Q16853); test: Single-ascending dose clinical trial: plasma SSAO activity (H2O2 generation); type: in vivo
T1 construct: from tissue; host or cells: human plasma (healthy volunteers)
T1 sequence (Q16853 27-763 limits assumed): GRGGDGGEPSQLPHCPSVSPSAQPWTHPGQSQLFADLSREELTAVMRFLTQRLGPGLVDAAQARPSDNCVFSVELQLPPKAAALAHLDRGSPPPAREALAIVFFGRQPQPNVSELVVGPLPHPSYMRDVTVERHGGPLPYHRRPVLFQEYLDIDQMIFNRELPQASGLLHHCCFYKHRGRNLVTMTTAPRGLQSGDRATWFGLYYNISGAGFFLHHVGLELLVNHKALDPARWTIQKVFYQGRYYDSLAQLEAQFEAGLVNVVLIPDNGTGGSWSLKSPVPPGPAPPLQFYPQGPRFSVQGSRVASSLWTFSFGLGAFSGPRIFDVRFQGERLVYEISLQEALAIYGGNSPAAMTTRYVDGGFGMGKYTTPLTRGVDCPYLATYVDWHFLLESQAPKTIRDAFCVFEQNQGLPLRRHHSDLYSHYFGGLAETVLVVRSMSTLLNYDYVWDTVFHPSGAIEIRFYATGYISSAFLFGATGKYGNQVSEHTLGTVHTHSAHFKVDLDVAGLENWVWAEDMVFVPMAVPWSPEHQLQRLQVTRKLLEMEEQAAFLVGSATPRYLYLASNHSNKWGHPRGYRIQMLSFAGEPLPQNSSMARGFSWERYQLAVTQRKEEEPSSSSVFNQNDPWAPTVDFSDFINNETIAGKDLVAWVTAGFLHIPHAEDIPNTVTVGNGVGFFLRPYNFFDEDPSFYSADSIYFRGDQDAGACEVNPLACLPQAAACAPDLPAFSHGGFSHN
Protocol: as §1, §2
SSAO-specific amine oxidase levels in plasma were determined using a kinetic-based assay essentially as described previously (Schilter et al). Endogenous monoamine oxidases A and B were inhibited by adding pargyline to plasma samples prior to measuring H2O2 generation levels in placebo and active recipients.

Rat model of NASH = conditions: in vivo

NC/C(=C\F)COc1ccc(S(N)(=O)=O)cc1 [PXS-4681A]
cytokine production [1]: reduced
effects relative to dexamethasone treatment [1]: comparable
leukocyte trafficking [1]: reduced

COC1CCN(c2ncc(OC/C(=C/F)CN)cn2)CC1 [toslyate salt of Formula 5]
TEAE diagnosis and frequency: upper respiratory tract infection ([2]; All cohorts (n = 32)): 1 (3.1)
TEAE diagnosis and frequency: upper respiratory tract infection ([2]; cohort 1, single oral dose 1 mg or placebo (n = 8)): 0
TEAE diagnosis and frequency: upper respiratory tract infection ([2]; cohort 2, single oral dose 3 mg or placebo (n = 8)): 0
TEAE diagnosis and frequency: upper respiratory tract infection ([2]; cohort 3, single oral dose 6 mg (n = 8)): 0
TEAE diagnosis and frequency: upper respiratory tract infection ([2]; cohort 4, single oral dose 10 mg or placebo (n = 8)): 1 (12.5)
Subject incidence of TEAEs considered possibly treatment-related ([2]; human, in vivo): 1 (3.1)
Subject incidence of any TEAE ([2]; human, in vivo): 5 (15.6)
TEAE diagnosis and frequency: constipation ([2]; human, in vivo): 1 (3.1)
TEAE diagnosis and frequency: contact dermatitis ([2]; human, in vivo): 2 (6.3)
TEAE diagnosis and frequency: dysgeusia ([2]; human, in vivo): 1 (3.1)
TEAE diagnosis and frequency: headache ([2]; human, in vivo): 1 (3.1)
TEAE diagnosis and frequency: sore throat ([2]; human, in vivo): 1 (3.1)
TEAE diagnosis and frequency: oral herpes ([2]; human, in vivo, po): 1 (3.1)
clearance from plasma [3]: rapidly cleared from plasma
plasma PK exposure dose proportionality [3]: greater than dose proportional

CC(C)(C)NC(=O)c1ccc(OC/C(=C/F)CN)cc1.Cl [BI 1467335]
airway infiltration of inflammatory immune cells [4]: suppressed
lung function [4]: improved
pulmonary fibrosis [4]: reduced
airway hyperreactivity (rhinovirus): reduced
inflammatory cellular infiltrates (rhinovirus): reduced
cytokine-induced cell migration ([5]; by diminishing leukocyte rolling and adherence): reduced
LPS-induced neutrophil lung migration ([5]; in vivo): reduced

CCOC(=O)C1=C[C@@H](OC(CC)CC)[C@H](NC(C)=O)[C@@H](N)C1 [Oseltamivir, oseltamivir, reference compound]
Median survival time ([6]; […]): undefined
Survival proportion ([6]; […]): 100%
Prolonged survival time* ([6]; […]): undefined
Prolonged survival time* ([6]; prophylactic): undefined

COC1CCN(c2ncc(OC/C(=C/F)CN)cn2)CC1 [Compound of Formula 5]
Median survival time ([6]; […]): 6 days
Survival proportion ([6]; […]): 0%
Prolonged survival time* ([6]; […]): 20%
exacerbation of viral replication or pathology ([6]; monotherapy or in combination with oseltamivir): did not appear to exacerbate
Prolonged survival time* ([6]; prophylactic): 20%
plasma methylamine (methylamine (MMA); across the dose range, single dose): Dose-dependent increases
duration of dose-dependent increases in plasma MMA (methylamine (MMA); after single doses): up to 1 week
Maximum plasma MMA levels (methylamine (MMA); single dose): increased
inhibition of plasma SSAO activity at 4 hours post-dose (SSAO; all dose cohorts, single dose): near complete inhibition
duration of suppression of plasma SSAO activity after a single dose (SSAO; single dose): up to 1 week
plasma amine oxidase activity (SSAO; single doses, all subjects): rapidly and potently decreased
duration of SSAO activity inhibition after a single dose (SSAO; single oral dose 1 mg to 10 mg): up to seven days
liver fibrosis (Rat model of NASH): decreases
liver inflammation (Rat model of NASH): decreases
